Earlier results on two compounds are cited in patent US20190290635A1, “METHODS OF TREATING BRAIN CANCER USING AGENTS THAT ALTER ACTIVITY OF A METABOLIC PATHWAY” (Clear Creek Bio, Inc., priority 2018, published 2019).

For data set [1] the following is noted: 43 patients; patient with papillary carcinoma of the thyroid; cited from earlier work.
For data set [2] the following is noted: 650 mg/m^2 brequinar (days 1, 8 and 15) with 75 mg/m^2 cisplatin (day 1); cited from earlier work.

`Cc1c(-c2ccc(-c3ccccc3F)cc2)nc2ccc(F)cc2c1C(=O)O` [Brequinar sodium]: the tumor response observed result in data set [1] was “One mixed response”.
With `Cc1c(-c2ccc(-c3ccccc3F)cc2)nc2ccc(F)cc2c1C(=O)O` [Brequinar, 6-fluoro-2-(2′-fluoro-1,1′ biphenyl-4-yl)-3-methyl-4-quinoline carboxylic acid], the “modification of individual drug pharmacokinetic parameters in combination with cisplatin” value in data set [2] was “without significant modifications”.
